In patent US20230124361A1, “SMALL MOLECULE STING ANTAGONISTS” (CURADEV PHARMA PVT. LTD., priority 2020, published 2023):

Molecular target: T1, STING (Homo sapiens, UniProt Q86WV6, G230A/H232R/R293Q/R71H)
T1 construct: host or cells: THP1-Dual cells (human THP-1 monocyte line with Lucia/SEAP reporters)
Assay: Reporter gene expression assay in THP1-Dual cells (IRF pathway Lucia luciferase, 2',3'-cGAMP stimulation)
Format: cell-based
Conditions: 10 min preincubation, 5 μM 2',3'-cGAMP, 20 hr, IRF reporter QUANTI-Luc, read-out: THP-1 (HAQ) Activity
Description: Reporter Gene Expression Assay in THP-1 Cells
THP1-Dual™ cells (Invivogen) were derived from the human THP-1 monocyte cell line by stable integration of two inducible reporter constructs. As a result, THP1-Dual™ cells allow the simultaneous study of the IRF pathway, by assessing the activity of a secreted luciferase (Lucia) and the NF-κB pathway, by monitoring the activity of secreted SEAP. 5×10^4 THP1-Dual™ cells were seeded in 384-well plates in growth medium and preincubated with novel compounds for 10 minutes followed by stimulation with 5 μM 2′,3′-cGAMP. After 20 hr of stimulation the supernatant was removed and the IRF pathway reporter protein was readily measured in the cell culture supernatant using QUANTI-Luc™ (Invivogen), a luciferase detection reagent on a Spectramax i3X luminometer.
In the tables below, IC50 value ranges for exemplary compounds are given. The IC50 ranges are indicated as “A” for values less than or equal to 1 μM, “B” for values greater than 1 μM and less than or equal to 10 μM, and “C” for values greater than 10 μM.

T1 sequence (Q86WV6 whole entry R71H/G230A/H232R/R293Q): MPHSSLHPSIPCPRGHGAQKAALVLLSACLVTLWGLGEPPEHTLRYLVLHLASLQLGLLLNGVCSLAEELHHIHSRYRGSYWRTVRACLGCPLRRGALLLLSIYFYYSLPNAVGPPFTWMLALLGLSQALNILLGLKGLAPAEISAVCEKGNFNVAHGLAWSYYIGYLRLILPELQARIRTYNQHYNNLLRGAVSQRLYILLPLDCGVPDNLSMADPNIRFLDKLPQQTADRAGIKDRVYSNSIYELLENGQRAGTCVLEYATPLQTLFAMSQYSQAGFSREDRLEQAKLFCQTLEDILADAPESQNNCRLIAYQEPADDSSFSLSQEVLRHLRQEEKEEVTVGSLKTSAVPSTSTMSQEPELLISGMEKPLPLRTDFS

Row | Compound | IC50 [µM]
1 | O=C(Nc1ccc2c(c1)OCC(=O)N2Cc1ccccc1)NC1CCC(c2ccccc2)CC1 (mixture of isomers) [Example 137, 1-(4-benzyl-3-oxo-3,4-dihydro-2H-benzo[b][1, 4]oxazin-7-yl)-3-(4-phenyl-cyclohexyl)urea] | 1 to 10
2 | O=C(Nc1cccnc1)Nc1ccc2c(c1)N(Cc1ccccc1)C(=O)CS2 [Example 4, 1-(4-benzyl-3-oxo-3,4-dihydro-2H-benzo[b][1, 4]thiazin-6-yl)-3-(pyridin-3-yl)urea] | 1 to 10
3 | O=C(Nc1ccncc1)Nc1ccc2c(c1)N(Cc1ccccc1)C(=O)CS2 [Example 6, 1-(4-benzyl-3-oxo-3,4-dihydro-2H-benzo[b][1, 4]thiazin-6-yl)-3-(pyridin-4-yl)urea] | 1 to 10
4 | N#Cc1ccc(CNC(=O)Nc2ccc3c(c2)N(Cc2ccccc2)C(=O)CS3)cc1 [Example 12, 1-(4-benzyl-3-oxo-3,4-dihydro-2H-benzo[b][1, 4]thiazin-6-yl)-3-(4-cyanobenzyl) urea] | > 10
5 | O=C(Nc1ccc(F)cc1)Nc1ccc2c(c1)N(Cc1cccnc1)C(=O)CS2 [Example 16, l-(4-fluorophenyl)-3-(3-oxo-4-(pyridin-3-ylmethyl)-3,4-dihydro-2H-benzo[b] [1,4]thiazin-6-yl)urea] | > 10
6 | O=C(Nc1ccc(F)cc1)Nc1ccc2c(c1)N(Cc1ccncc1)C(=O)CS2 [Example 17, l-(4-fluorophenyl)-3-(3-oxo-4-(pyridin-4-ylmethyl)-3,4-dihydro-2H-benzo[b][1, 4]thiazin-6-yl)urea] | > 10
7 | O=C(Nc1ccc2c(c1)OCCO2)Nc1ccc2c(c1)N(Cc1ccccc1)C(=O)CS2 [Example 23, 1-(4-benzyl-3-oxo-3,4-dihydro-2H-benzo[b] [1,4]thiazin-6-yl)-3-(2,3-dihydrobenzo [b][1,4]dioxin-6-yl)urea] | 1 to 10
8 | O=C(Nc1ccc2c(c1)N(Cc1noc3ccccc13)C(=O)CS2)Nc1ccc2cc[nH]c2c1 [Example 24, 1-(4-(benzo[d]isoxazol-3-ylmethyl)-3-oxo-3,4-dihydro-2H-benzo [b][1,4]thiazin-6-yl)-3-(1H-indol-6-yl)urea] | 1 to 10

More lines, now with the values ahead:

Row | IC50 [µM] | Compound
9 | 1 to 10 | O=C(Nc1ccc2c(c1)N(Cc1ccccc1)C(=O)CS2)Nc1ccc2cc[nH]c2c1 [Example 1, 1-(4-Benzyl-3-oxo-3,4-dihydro-2H-benzo[b][1,4]thiazin-6-yl)-3-(1H-indol-6-yl)urea]
10 | 1 to 10 | O=C(Nc1ccccc1)Nc1ccc2c(c1)N(Cc1ccccc1)C(=O)CS2 [Example 2, 1-(4-benzyl-3-oxo-3,4-dihydro-2H-benzo[b][1, 4]thiazin-6-yl)-3-phenylurea]
11 | 1 to 10 | O=C(Nc1ccc(F)cc1)Nc1ccc2c(c1)N(Cc1ccccc1)C(=O)CS2 [Example 3, 1-(4-benzyl-3-oxo-3,4-dihydro-2H-benzo[b][i, 4]thiazin-6-yl)-3-(4-fluorophenyl) urea]
12 | 1 to 10 | O=C(Nc1ccc2c(c1)N(Cc1ccccc1)C(=O)CS2)Nc1ccc2[nH]ccc2c1 [Example 9, 1-(4-benzyl-3-oxo-3,4-dihydro-2H-benzo[b][1, 4]thiazin-6-yl)-3-(1H-indol-5-yl)urea]
13 | ≤ 1 | O=C(Nc1ccc2c(c1)N(Cc1ccccc1)C(=O)CS2)Nc1c[nH]c2ccccc12 [Example 18, 1-(4-benzyl-3-oxo-3,4-dihydro-2H-benzo[b][1, 4]thiazin-6-yl)-3-(1H-indol-3-yl)urea]
14 | 1 to 10 | O=C(Nc1ccc2c(c1)N(Cc1ccccc1)C(=O)CS2)Nc1cccc2cc[nH]c12 [Example 19, 1-(4-benzyl-3-oxo-3,4-dihydro-2H-benzo[b][1, 4]thiazin-6-yl)-3-(1H-indol-7-yl)urea]
15 | 1 to 10 | Nc1cccc(NC(=O)Nc2ccc3c(c2)N(Cc2ccccc2)C(=O)CS3)c1 [Example 25, 1-(3-aminophenyl)-3-(4-benzyl-3-oxo-3,4-dihydro-2H-benzo [b][1,4]thiazin-6-yl)urea]
